Earlier results as cited in US20100069356A1, “DIBENZO[…] DOPAMINE, ALPHA […], AND SEROTONIN RECEPTORS” (AUSPEX PHARMACEUTICALS, INC., priority 2008, published 2010).

Details: in vivo

half-life: ~6 h
SMILES: OCCOCCN1CCN(C2=Nc3ccccc3Sc3ccccc32)CC1 [Quetiapine, 2-(2-(4-dibenzo[b,f][1,4]thiazepine-11-yl-1-piperazinyl)ethoxy)ethanol]
